In US9834514B2, “Antibiotic sensitivity-restoring and photosensitive agents” (New Mexico Tech Research Foundation, priority 2015, dated 2017):
Values after ≈ are worked out from the molar mass of the structure shown. Where two headings read alike, the source gives them in different places.

Columns and labels:
[1] = MIC against MRSA isolates; format: cell-based, S. aureus; conditions: Staphylococcus aureus
Method in brief: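 Broth microdilution in TSB, ~5×10^5 CFU/mL, two-fold dilutions from 100 μM, overnight at 37 °C shaking 100 rpm.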

[2] = test system: P. aeruginosa; assay: Cell killing with compounds and PME at fixed concentrations, with and without white light; format: cell-based; conditions: 20 μM compound and 0.1 μg/mL PME
Protocol: FIG. 26 is an example of the treatment of P. aeruginosa with compound 1 and PME at fixed concentrations.
P. aeruginosa cells were also treated with white light upon being incubated with compound 1 for different durations of time. In a 12×75 mm borosilicate glass culture tube, 1 mL of cell suspension was added. PME was added to the cells, and the samples were mixed using a vortex mixer. The resulting samples were incubated for 1.5 hours at 37° C. on a rotary shaking incubator at 100 rpm. Compound 1 was then added, and the samples were incubated for 30 minutes at 37° C. on a rotary shaking incubator at 100 rpm. The samples were then irradiated with white light using a Lumacare™ LC-122 for 2 minutes (irradiation λ1) and incubated overnight at 37° C. The samples were irradiated again with white light using a Lumacare™ LC-122 for 2 minutes (irradiation λ2). Ten-fold dilutions were made of each sample, and 10 μL of each dilution was drip-streaked onto an agar plate. The samples were incubated overnight at 37° C., and colony counts were performed to calculate CFU/mL.
FIG. 55 is an illustrative example of the treatment of P. aeruginosa with compound 1, PME, co-treatment with compound 1 and PME, and co-treatment with compound 1, PME, and light (λ1 and λ2) at fixed concentrations.

[3] = test system: P. aeruginosa; assay: Resensitization to antibiotics (log reduction, TABLE 29); format: cell-based; conditions: compound 20 μM; PME (0.1 μg/mL)
[4] = test system: MRSA isolates (S. aureus ATCC 33591, BAA-44, BAA-1707, BAA-1717, BAA-1720, BAA-1747, BAA-1754, BAA-1761, BAA-1763, BAA-1764, BAA-1766); assay: Combination effects of compounds 7-11 and antibiotics on MRSA isolates (turbidity); format: cell-based
Source text: Inhibition resulting from co-treatment of a broth suspension with a compound of the invention and an antibiotic was compared to broth suspensions subjected to each individual treatment. A visual observation of inhibition with the unaided eye upon co-treatment of the broth suspensions, based on turbidity, was considered synergistic.
Exceptions to reading complete inhibition of growth included Gram-positive cocci. For Gram-positive cocci, trailing growth was observed. For these species, the MICs were read at the first spot where trailing was observed, and tiny buttons of growth were ignored. […]
Two-fold dilutions of the antibiotics were prepared in a liquid growth medium dispensed in test tubes. […] The antibiotic-containing tubes were inoculated with a standard bacterial suspension of 5×10^5 CFU/mL. Following an overnight incubation (16-20 hrs) at 35±2° C. under ambient air, the tubes were examined for visible bacterial growth based on turbidity. The lowest concentration of antibiotic that prevented growth was determined to be the MIC. An incubation time of 24 hrs was used to determine the MICs of oxacillin and vancomycin.

[5] = test system: S. aureus (ATCC 29213); assay: microbe, parasite or virus in culture; format: cell-based
Protocol: Each mixture was incubated at 37° C. on a rotary shaking incubator for about 16 hours. MTT was then added to assess the viability of the cells (at 10% well volume). […] The cells were then streaked onto a TSA plate and incubated overnight at 37° C. These steps were repeated to reach a total of 30 exposures.

In the case of Clc1ccc(Oc2c(-c3ccc(Cl)cc3)[nH]c3ccc(Cl)cc23)cc1 [Compound 11], the MIC ([1]; MRSA (ATCC BAA-44), TABLE 21, read-out: MRSA MIC) is reported as 8 µM (≈ 3.11 µg/mL), the MIC ([1]; MRSA isolate ATCC 33591, read-out: MIC) is reported as 6.3 to 12.5 µM (≈ 2.45 to 4.86 µg/mL) and the MIC ([1]; MRSA isolate ATCC BAA-44, read-out: MIC) is reported as 4 µM (≈ 1.55 µg/mL). The MIC ([1]; MRSA isolate ATCC BAA-1707, read-out: MIC) was 12.5 µM (≈ 4.86 µg/mL), the MIC ([1]; MRSA isolate ATCC BAA-1717, read-out: MIC) was 3.1 to 6.3 µM (≈ 1.2 to 2.45 µg/mL) and the MIC ([1]; MRSA isolate ATCC BAA-1720, read-out: MIC) was 3.1 to 6.3 µM (≈ 1.2 to 2.45 µg/mL). For the same compound, the MIC ([1]; MRSA isolate ATCC BAA-1747, read-out: MIC) was 6.3 to 12.5 µM (≈ 2.45 to 4.86 µg/mL), the MIC ([1]; MRSA isolate ATCC BAA-1754, read-out: MIC) was 50 to 100 µM (≈ 19.4 to 38.9 µg/mL) and the MIC ([1]; MRSA isolate ATCC BAA-1761, read-out: MIC) was 50 to 100 µM (≈ 19.4 to 38.9 µg/mL). It also gave an MIC ([1]; MRSA isolate ATCC BAA-1763, read-out: MIC) of 50 µM (≈ 19.4 µg/mL), an MIC ([1]; MRSA isolate ATCC BAA-1764, read-out: MIC) of 50 µM (≈ 19.4 µg/mL) and an MIC ([1]; MRSA isolate ATCC BAA-1766, read-out: MIC) of 50 to 100 µM (≈ 19.4 to 38.9 µg/mL). For the same compound, the “Co-treatment with PME: log reduction in the CFU/mL compared to PME alone” value [2] was 2-log reduction, the “Co-treatment with PME: log reduction in the CFU/mL compared to PME alone” value ([2]; listed as compound 11) was “about 2 log reduction” and the “Log Reduction” value [3] was 2. The “combination effect with Gentamycin” value ([4]; MRSA ATCC 33591) was “No Synergy”, the “combination effect with Norfloxacin” value ([4]; MRSA ATCC 33591) was “No Synergy” and the “combination effect with Oxacillin” value ([4]; MRSA ATCC 33591) was “No Synergy”. The “combination effect with Tetracycline” value ([4]; MRSA ATCC 33591) was “No Synergy”, the “combination effect with Vancomycin” value ([4]; MRSA ATCC 33591) was “Susceptible” and the “combination effect with Norfloxacin” value ([4]; MRSA ATCC BAA-44) was “No Synergy”. The “combination effect with Oxacillin” value ([4]; MRSA ATCC BAA-44) was “Synergy”, the “combination effect with Tetracycline” value ([4]; MRSA ATCC BAA-44) was “Susceptible” and the “combination effect with Vancomycin” value ([4]; MRSA ATCC BAA-44) was “Susceptible”. For the same compound, the “combination effect with Gentamycin” value ([4]; MRSA ATCC BAA-1707) was “Susceptible”, the “combination effect with Norfloxacin” value ([4]; MRSA ATCC BAA-1707) was “Susceptible” and the “combination effect with Oxacillin” value ([4]; MRSA ATCC BAA-1707) was “Susceptible”. The “combination effect with Tetracycline” value ([4]; MRSA ATCC BAA-1707) was “Synergy”, the “combination effect with Vancomycin” value ([4]; MRSA ATCC BAA-1707) was “Susceptible” and the “combination effect with Gentamycin” value ([4]; MRSA ATCC BAA-1717) was “Susceptible”. The “combination effect with Norfloxacin” value ([4]; MRSA ATCC BAA-1717) was “Susceptible”, the “combination effect with Oxacillin” value ([4]; MRSA ATCC BAA-1717) was “Synergy” and the “combination effect with Tetracycline” value ([4]; MRSA ATCC BAA-1717) was “Susceptible”. The “combination effect with Vancomycin” value ([4]; MRSA ATCC BAA-1717) was “Susceptible”, the “combination effect with Gentamycin” value ([4]; MRSA ATCC BAA-1720) was “Susceptible” and the “combination effect with Norfloxacin” value ([4]; MRSA ATCC BAA-1720) was “No Synergy”. For the same compound, the “combination effect with Oxacillin” value ([4]; MRSA ATCC BAA-1720) was “No Synergy”, the “combination effect with Tetracycline” value ([4]; MRSA ATCC BAA-1720) was “Susceptible” and the “combination effect with Vancomycin” value ([4]; MRSA ATCC BAA-1720) was “Susceptible”. For the same compound, the “combination effect with Gentamycin” value ([4]; MRSA ATCC BAA-1747) was “Susceptible”, the “combination effect with Norfloxacin” value ([4]; MRSA ATCC BAA-1747) was “Susceptible” and the “combination effect with Oxacillin” value ([4]; MRSA ATCC BAA-1747) was “Susceptible”. For the same compound, the “combination effect with Tetracycline” value ([4]; MRSA ATCC BAA-1747) was “Susceptible”, the “combination effect with Vancomycin” value ([4]; MRSA ATCC BAA-1747) was “Susceptible” and the “combination effect with Gentamycin” value ([4]; MRSA ATCC BAA-1754) was “Susceptible”. The “combination effect with Norfloxacin” value ([4]; MRSA ATCC BAA-1754) was “Susceptible”, the “combination effect with Oxacillin” value ([4]; MRSA ATCC BAA-1754) was “No Synergy” and the “combination effect with Tetracycline” value ([4]; MRSA ATCC BAA-1754) was “Susceptible”. The “combination effect with Vancomycin” value ([4]; MRSA ATCC BAA-1754) was “Susceptible”, the “combination effect with Gentamycin” value ([4]; MRSA ATCC BAA-1761) was “Susceptible” and the “combination effect with Norfloxacin” value ([4]; MRSA ATCC BAA-1761) was “No Synergy”. For the same compound, the “combination effect with Oxacillin” value ([4]; MRSA ATCC BAA-1761) was “Susceptible”, the “combination effect with Tetracycline” value ([4]; MRSA ATCC BAA-1761) was “Susceptible” and the “combination effect with Vancomycin” value ([4]; MRSA ATCC BAA-1761) was “Susceptible”. The “combination effect with Gentamycin” value ([4]; MRSA ATCC BAA-1763) was “Susceptible”, the “combination effect with Norfloxacin” value ([4]; MRSA ATCC BAA-1763) was “No Synergy” and the “combination effect with Oxacillin” value ([4]; MRSA ATCC BAA-1763) was “No Synergy”. The “combination effect with Tetracycline” value ([4]; MRSA ATCC BAA-1763) was “Susceptible”, the “combination effect with Vancomycin” value ([4]; MRSA ATCC BAA-1763) was “Susceptible” and the “combination effect with Gentamycin” value ([4]; MRSA ATCC BAA-1764) was “Susceptible”. For the same compound, the “combination effect with Norfloxacin” value ([4]; MRSA ATCC BAA-1764) was “Susceptible”, the “combination effect with Oxacillin” value ([4]; MRSA ATCC BAA-1764) was “No Synergy” and the “combination effect with Tetracycline” value ([4]; MRSA ATCC BAA-1764) was “Susceptible”. For the same compound, the “combination effect with Vancomycin” value ([4]; MRSA ATCC BAA-1764) was “Susceptible”, the “combination effect with Gentamycin” value ([4]; MRSA ATCC BAA-1766) was “Susceptible” and the “combination effect with Norfloxacin” value ([4]; MRSA ATCC BAA-1766) was “Susceptible”. The “combination effect with Oxacillin” value ([4]; MRSA ATCC BAA-1766) was “No Synergy”, the “combination effect with Tetracycline” value ([4]; MRSA ATCC BAA-1766) was “Susceptible” and the “combination effect with Vancomycin” value ([4]; MRSA ATCC BAA-1766) was “Susceptible”. The “Resistance Evolved” value [5] was “Yes” and the MIC ([5]; Staphylococcus aureus, ATCC29213, read-out: Final MIC Apr. 16, 2015) was over 256 µM.
